Results as given in ChEMBL document CHEMBL5724914, “Linking interpersonal differences in gut microbiota composition and drug biotransformation activity” (2024).

What was measured:
[1] = (§1) The drug is tested on Z-025 corresponding to rabbit gut metagenome with ENA study accession number: PRJEB37062 and ENA sample accession number: ERS12561824 for biotransformation under anaerobic condition. The drug concentrations were measured over 9 timepoints collected between 0 and 24 hours of incubation by liquid-chromatography-coupled mass spectrometry (LC–MS); conditions: 2 µM
[2] = as §1, with “Z-021” for “Z-025”, “to” for “to rabbit gut”, “ERS12561820” for “ERS12561824”; conditions: 2 µM
[3] = as §1, with “Z-018” for “Z-025”, “pig” for “rabbit”, “ERS12561817” for “ERS12561824”; conditions: 2 µM
[4] = as §1, with “Z-017” for “Z-025”, “mouse” for “rabbit”, “ERS12561816” for “ERS12561824”; conditions: 2 µM
[5] = as §1, with “Z-013” for “Z-025”, “ERS12561813” for “ERS12561824”; conditions: 2 µM
[6] = as §1, with “Z-012” for “Z-025”, “to” for “to rabbit gut”, “ERS12561812” for “ERS12561824”; conditions: 2 µM
[7] = as §1, with “Z-008” for “Z-025”, “to” for “to rabbit gut”, “ERS12561808” for “ERS12561824”; conditions: 2 µM
[8] = as §1, with “Z-006” for “Z-025”, “mouse” for “rabbit”, “ERS12561806” for “ERS12561824”; conditions: 2 µM
[9] = as §1, with “WLS-098” for “Z-025”, “human” for “rabbit”, “ERS12561754” for “ERS12561824”; conditions: 2 µM
[10] = as §1, with “WLS-077” for “Z-025”, “human” for “rabbit”, “ERS12561750” for “ERS12561824”; conditions: 2 µM
[11] = as §1, with “WLS-007” for “Z-025”, “human” for “rabbit”, “ERS12561742” for “ERS12561824”; conditions: 2 µM
[12] = human gut metagenome, 24 h, 2 µM
[13] = human gut metagenome, 24 h, 2 µM; remark: listed apart in the source
[14] = human gut metagenome, 24 h, 2 µM; remark: listed apart in the source
[15] = human gut metagenome, 24 h, 2 µM; remark: listed apart in the source
[16] = human gut metagenome, 24 h, 2 µM; remark: listed apart in the source
[17] = human gut metagenome, 24 h, 2 µM; remark: listed apart in the source
[18] = human gut metagenome, 24 h, 2 µM; remark: listed apart in the source
[19] = human gut metagenome, 24 h, 2 µM; remark: listed apart in the source
[20] = human gut metagenome, 24 h, 2 µM; remark: listed apart in the source
Note: call rule not given here.

| Structure (SMILES) | Bacterial Biotransformation [1] | Bacterial Biotransformation [2] | Bacterial Biotransformation [3] | Bacterial Biotransformation [4] | Bacterial Biotransformation [5] | Bacterial Biotransformation [6] | Bacterial Biotransformation [7] | Bacterial Biotransformation [8] | Bacterial Biotransformation [9] | Bacterial Biotransformation [10] | Bacterial Biotransformation [11] | Bacterial Biotransformation [12] | Bacterial Biotransformation [13] | Bacterial Biotransformation [14] | Bacterial Biotransformation [15] | Bacterial Biotransformation [16] | Bacterial Biotransformation [17] | Bacterial Biotransformation [18] | Bacterial Biotransformation [19] | Bacterial Biotransformation [20] |
| --- | --- | --- | --- | --- | --- | --- | --- | --- | --- | --- | --- | --- | --- | --- | --- | --- | --- | --- | --- | --- |
| O=c1[nH]c2ccccc2n1C1CCN(CCCC(c2ccc(F)cc2)c2ccc(F)cc2)CC1 [PIMOZIDE] | Compound metabolized | Compound metabolized | Compound metabolized | Compound metabolized | Compound metabolized | Compound metabolized | Compound metabolized | Compound metabolized | Compound metabolized | Compound NOT metabolized | Compound metabolized | Compound metabolized | Compound metabolized | Compound NOT metabolized | Compound metabolized | Compound NOT metabolized | Compound metabolized | Compound metabolized | Compound NOT metabolized | Compound metabolized |
| CC(C)N(CCC(C(N)=O)(c1ccccc1)c1ccccn1)C(C)C.O=P(O)(O)O (stereo not given) [DISOPYRAMIDE PHOSPHATE] | Compound NOT metabolized | Compound NOT metabolized | Compound NOT metabolized | Compound NOT metabolized | Compound NOT metabolized | Compound NOT metabolized | Compound NOT metabolized | Compound NOT metabolized | Compound metabolized | Compound NOT metabolized | Compound metabolized | Compound NOT metabolized | Compound NOT metabolized | Compound NOT metabolized | Compound NOT metabolized | Compound NOT metabolized | Compound NOT metabolized | Compound NOT metabolized | Compound NOT metabolized | Compound metabolized |
| CN(C)CCC=C1c2ccccc2C=Cc2ccccc21 [CYCLOBENZAPRINE] | Compound metabolized | Compound metabolized | Compound metabolized | Compound NOT metabolized | Compound NOT metabolized | Compound NOT metabolized | Compound NOT metabolized | Compound NOT metabolized | Compound metabolized | Compound NOT metabolized | Compound metabolized | Compound metabolized | Compound NOT metabolized | Compound NOT metabolized | Compound metabolized | Compound metabolized | Compound metabolized | Compound NOT metabolized | Compound metabolized | Compound NOT metabolized |
| CC(C)(C(=O)O)c1ccc(C(O)CCCN2CCC(C(O)(c3ccccc3)c3ccccc3)CC2)cc1 (stereo not given) [FEXOFENADINE] | Compound NOT metabolized | Compound NOT metabolized | Compound NOT metabolized | Compound NOT metabolized | Compound NOT metabolized | Compound NOT metabolized | Compound NOT metabolized | Compound NOT metabolized | Compound NOT metabolized | Compound NOT metabolized | Compound NOT metabolized | Compound NOT metabolized | Compound NOT metabolized | Compound NOT metabolized | Compound NOT metabolized | Compound NOT metabolized | Compound NOT metabolized | Compound NOT metabolized | Compound NOT metabolized | Compound NOT metabolized |
